The text below walks through data of patent US20130203734A1, “ANTI-INFLAMMATORY AGENTS” (priority 2010, published 2013).

Data set [1] concerns MCP-1 induced migration of THP-1 cells. The conditions noted are these: cited from earlier work.
Data set [2] relates to endotoxin-stimulated TNF-alpha levels. Nature of the data set: Murine sub-lethal endotoxemia model, serum TNF-α by ELISA. The data set is classed as in vivo, mice. The method, then:
FIG. 2 is a graph showing the results of a murine sub-lethal endotoxemia test.
The anti-inflammatory efficacy of an exemplar compound according to the present invention was tested using the murine sub-lethal endotoxemia model.
Briefly, the method is as follows. Female CD1 mice (28-30g, ˜7 weeks of age) were dosed with their respective treatment in sterile filtered 1% CMC by oral gavage in a dose volume of 10 ml/kg one hour prior to an endotoxin (LPS) challenge. The endotoxin challenge was injected by the intraperitoneal route containing 675,000 Endotoxin Units of LPS (E. coli strain 0111:B4 (Code L4130)) in endotoxin free PBS. Mice were left for two hours and then exsanguinated under terminal anaesthesia and blood was taken. Serum was prepared from this terminal bleed and aliquoted and stored at −20° C. Serum TNF-α levels were measured by ELISA per manufacturers instructions (R and D Systems).
Eight animals were treated in each group, and the data for the animal with the highest and lowest TNF-α level in each group were eliminated, and the mean and standard error reported for the remaining six animals.
For orientation: ELISA stands for enzyme-linked immunosorbent assay.

Data set [3] relates to MCP-1 induced migration of THP-1 cells. Nature of the data set: Inhibition of MCP-1 induced leukocyte migration (transwell, THP-1 cells). Format: cell-based. To be noted: Homo sapiens, MCP-1 25 ng/ml, 2 hours 37° C., read-out: ED50 (concentration required to reduce MCP-1-induced migration by 50%). The method, then: A. Inhibition of MCP-1 Induced Leukocyte Migration
In principle, this assay consists of two chambers separated by a porous membrane. The chemoattractant is placed in the lower compartment and the cells are placed in the upper compartment. After incubation for a period at 37° C. the cells move towards the chemoattractant, and the number of cells in the lower compartment is proportional to the chemoattractant activity (relative to a series of controls).
This assay can be used with a range of different leukocyte populations. For example, freshly prepared human peripheral blood leukocytes may used. Alternatively, leukocyte subsets may be prepared, including polymorphonuclear cells or lymphocytes or monocytes using methods well known to those skilled in the art such as density gradient centrifugation or magnetic bead separations. Alternatively, immortal cell lines which have been extensively validated as models of human peripheral blood leukocytes may be used, including, but not limited to THP-1 cells as a model of monocytes or Jurkat cells as model of naive T cells.
The transwell migration systems are manufactured by Neuroprobe, Gaithersburg, Md., USA.
The plates used are ChemoTx plates (Neuroprobe 101-8) and 30 μl clear plates (Neuroprobe MP30).
Geys' Balanced Salt Solution is purchased from Sigma (Sigma G-9779).
Fatty acid-free BSA is purchased from Sigma (Sigma A-8806). […]

The subject of data set [4] is chemokine-induced migration. The conditions noted are these: cited from earlier work.
For data set [5] the following is noted: 37° C.; cited from earlier work.
For data set [6] the following is noted: cited from earlier work.

Consider `CCCCCCCCCCC(C)(C)C(=O)NC1CCCCNC1=O` (stereo not drawn) [2′2′-dimethyldodecenanoyl-3-aminocaprolactam], for which the “potency as a BSCI relative to dodecanoyl-3-aminocaprolactam” value in data set [1] (MCP-1 induced THP-1 cell migration assay) was 10 fold.

For `CCCCCCCCCC(C)(C)CC(=O)NC1CCCCNC1=O` (stereo not drawn) [3′3′-dimethyldodecanoyl-3-aminocaprolactam], the “potency as a BSCI relative to the linear alkyl analogs” value in data set [1] is “no more potent”.

Regarding `O=C1NCCCC[C@@H]1NC(=O)C12CC3CC(CC(C3)C1)C2` [(S)-3-(adamantane-1-carbonyl)aminocaprolactam], in data set [2] (1 mg/kg p.o.), the “anti-inflammatory effect in vivo compared with the compound of Example 4” value is given as “similar”.

For the compound `O=C1NCCC[C@@H]1NS(=O)(=O)c1ccc(F)cc1` [Example 1, (S)-4-Fluoro-N-(2-oxopiperidin-3-yl)benzenesulfonamide], the melting point (as a rule, the temperature, or range, at which the solid turns liquid) was in the range of 153 to 156 °C.

The compound `O=C1NCCC[C@@H]1NS(=O)(=O)c1cccc(F)c1` [Example 2, (S)-3-Fluoro-N-(2-oxopiperidin-3-yl)benzenesulfonamide] came in with a melting point of 159 to 160 °C.

In the case of `O=C1NCCC[C@@H]1NS(=O)(=O)c1ccccc1F` [Example 3, (S)-2-Fluoro-N-(2-oxopiperidin-3-yl)benzenesulfonamide], the melting point lay in the range of 180 to 183 °C.

For the compound `O=C1NCCC[C@@H]1NS(=O)(=O)c1ccc(C(F)(F)F)cc1` [Example 4, (S)—N-(2-Oxopiperidin-3-yl)-4-(trifluoromethyl)-benzenesulfonamide], the “inhibition of endotoxin-stimulated TNF-alpha levels” value in data set [2] (female CD1 mice, single dose 10 mg/kg p.o. one hour prior to LPS, serum 2 hours after LPS) is recorded as 60-70%.

For the compound `O=C1NCCC[C@@H]1NS(=O)(=O)c1cccc(C(F)(F)F)c1` [Example 5, (S)—N-(2-Oxopiperidin-3-yl)-3-(trifluoromethyl)benzenesulfonamide], the melting point is 158 to 160 °C.

With `O=C1NCCC[C@@H]1NS(=O)(=O)c1ccccc1C(F)(F)F` [Example 6, (S)—N-(2-oxopiperidin-3-yl)-2-(trifluoromethyl)benzenesulfonamide], the melting point lay within 161 to 163 °C.

With `O=C1NCCC[C@@H]1NS(=O)(=O)c1ccc(F)cc1F` [Example 7, (S)-2,4-difluoro-N-(2-oxopiperidin-3-yl)benzenesulfonamide], the melting point is 162 to 163 °C.

With `O=C1NCCC[C@@H]1NS(=O)(=O)c1cc(F)ccc1F` [Example 8, (S)-2,5-difluoro-N-(2-oxopiperidin-3-yl)benzenesulfonamide], the melting point lay within 183 to 185 °C.

With `O=C1NCCC[C@@H]1NS(=O)(=O)c1c(F)cccc1F` [Example 9, (S)-2,6-difluoro-N-(2-oxopiperidin-3-yl)benzenesulfonamide], the melting point was in the range of 152 to 153 °C.

`O=C1NCCC[C@@H]1NS(=O)(=O)c1ccc(F)c(F)c1` [Example 10, (S)-3,4-difluoro-N-(2-oxopiperidin-3-yl)benzenesulfonamide] returned a melting point of 153 to 155 °C.

`O=C1NCCC[C@@H]1NS(=O)(=O)c1cc(F)cc(F)c1` [Example 11, (S)-3,5-difluoro-N-(2-oxopiperidin-3-yl)benzenesulfonamide] showed a melting point of 170 to 174 °C.

The compound `CC(C)(C)c1ccc(S(=O)(=O)N[C@H]2CCCNC2=O)cc1` [Example 16, (S)-3-(4′-tert-Butylbenzenesulfonylamino)-tetrahydropyridin-2-one] came in with a melting point of 155 to 156 °C.

For `CCCCCCCCc1ccc(S(=O)(=O)N[C@H]2CCCNC2=O)cc1` [Example 19, (S)-3-(4′-Octylbenzenesulfonylamino)-tetrahydropyridin-2-one], the melting point was in the range of 98 to 99 °C.

As to `Cc1ccc(S(=O)(=O)NC2CCCNC2=O)cc1` (stereo not drawn) [Reference Example 1, 3-(4′-Methylbenzenesulfonylamino)tetrahydropyridin-2-one], the EC50 in data set [3] was no more than 100 nM.

Regarding `Cc1ccc(S(=O)(=O)NC2CCCCNC2=O)cc1` (stereo not drawn) [Reference Example 2, 3-(4′-Methylbenzenesulfonylamino)azepan-2-one], in data set [3], the EC50 was no more than 100 nM.

Take `CCCCCCCCCC=CC(=O)NC1CCCCNC1=O` (stereo not drawn) [dodec-2′,3′-enoyl-3-aminocaprolactam]: the “potency as BSCI relative to compounds with corresponding saturated alkyl tail groups” value in data set [4] is given as “markedly lower potency”.

Turning to `O=C1CCC(N2C(=O)c3ccccc3C2=O)C(=O)N1` (stereo not drawn) [thalidomide], in data set [2] (thalidomide 10 mg/kg p.o., positive control, maximally effective dose), the “anti-inflammatory effect on TNF-α levels in vivo compared with the compound of Example 4” value is given as “quantitatively similar”.

On to “(S)-3-(undec-10-enoyl)-tetrahydropyridin-2-one”, for which the “potency compared with the parental molecule (S)-3-(undec-10-enoyl)-aminoglutarimide” value in data set [4] is listed as “considerably reduced potency”. Besides, the “stability in human serum (completely stable for)” value in data set [5] is “at least 7 days”.

As to “c(DCys-DGln-DIle-DTrp-DLys-DGIn-DLys-DPro-DAsp-DLeu-DCys)-NH2 [NR58-3.14.3]”, the “half-life of clearance from blood plasma” value in data set [6] (after intravenous injection) is listed as “less than 30 minutes”. For the same compound, the oral bioavailability result in data set [6] (in vivo, po) is “not orally bioavailable”.
